Assay results published in article PMC11613490, “Cyclophostin and Cyclipostins analogues counteract macrolide-induced resistance mediated by erm(41) in Mycobacterium abscessus” (Journal of Biomedical Science, 2024).
≈ marks a conversion by molar mass, not a printed value. Where two headings read alike, the source gives them in different places.

Key:
Experiment in all cases: microbe, parasite or virus in culture
[1] = system: M. abscessus S (control, untreated); parameters: species or system Mycobacterium abscessus S; broth microdilution / checkerboard MIC in 7H9-S OADC, OD600, more than 90% growth inhibition; conditions: Mycobacteroides abscessus, read-out: MIC, single drug
[2] = system: M. abscessus S reference strain (Control, untreated); conditions: Mycobacteroides abscessus, read-out: MIC (0 µg/mL CyC, alone)
Description: Synergistic activities were tested in 96-well microplates by the checkerboard assay in Middlebrook 7H9-S^OADC broth and using microdilution method [47]. MIC of the antibiotics were determined in 96 well flat-bottom Nunclon Delta Surface microplates with lid (Thermo-Fisher Scientific, ref. 167008) using optical density to assess growth. Log-phase bacteria were diluted to a cell density of 5 × 10^6 cells/mL in 7H9-S^OADC medium. Then, 100 µL of this bacterial suspension (5 × 10^5 cells final per well) was added to each well containing 100 µL of the 7H9-S^OADC medium, serial two-fold dilutions of the selected antibiotics or controls to a final volume of 200 µL. In addition, wells containing 200 µL of 7H9-S^OADC medium only were used as sterility/background controls, whereas wells containing 100 µg/mL kanamycin (Euromedex) was used as positive control for growth inhibition. Plates were incubated at 37 °C for 4 to 5 days. The optical density (OD) at 600 nm was quantified using a Tecan Spark 10 M™ multimode microplate reader (Tecan Group Ltd., France). Relative growth units were defined as: RGU% = (test well OD600nm/mean OD600nm of growth control wells) ×100. For each condition, three biological replicates were performed. The MIC of each drug was defined as the lowest drug concentration that inhibited more than 90% of the bacterial growth.

[3] = system: M. abscessus S reference strain (Control, untreated); parameters: species or system Mycobacterium abscessus; broth microdilution in 7H9-OADC, OD600 growth, MIC defined as 90% growth inhibition; conditions: Mycobacteroides abscessus, single drug, read-out: MIC (0 µg/mL CyC, alone)

`CC[C@H]1OC(=O)[C@H](C)[C@@H](O[C@H]2C[C@@](C)(OC)[C@@H](O)[C@H](C)O2)[C@H](C)[C@@H](O[C@@H]2O[C@H](C)C[C@H](N(C)C)[C@H]2O)[C@](C)(O)C[C@@H](C)CN(C)[C@H](C)[C@@H](O)[C@]1(C)O` [AZM, azithromycin] showed an MIC [1] of 6 µg/mL.

Molecule `CC[C@H]1OC(=O)[C@H](C)[C@@H](O[C@H]2C[C@@](C)(OC)[C@@H](O)[C@H](C)O2)[C@H](C)[C@@H](O[C@@H]2O[C@H](C)C[C@H](N(C)C)[C@H]2O)[C@](C)(OC)C[C@@H](C)C(=O)[C@H](C)[C@@H](O)[C@]1(C)O` [CLR, clarithromycin] has an MIC [1] of 0.6 µg/mL.

`CCCCCCCCCCCCCCCCOP1(=O)OCCC(C(=O)OC)=C(C)O1` (stereo not shown) [CyC17] showed an MIC [2] of 3.2 µg/mL (≈ 7.17 µM).

With `CCCCCCCCCCCOP1(=O)OCCC(C(=O)OC)=C(C)O1` (stereo not shown) [CyC31] the MIC [3] was 20 µg/mL (≈ 53.1 µM).
